Legend:
[1] = Acute oral toxicity in mice; conditions: mouse, in vivo, highest dose used 1000 mg/kg, read-out: LD50 (doses lethal to 50% of mice tested)
Text: Mice were each treated orally with one of the compounds of formula I, and they were observed daily until there had been at least 3 consecutive days without any deaths. The LD50 figures obtained (doses lethal to 50% of mice tested) are shown below in Table IV, expressed in mg/kg animal body weight.
The symbol ">" means "greater than" in this specification. Where the LD50 is said to be ">1000," a more precise estimation of the LD50 was not possible because the numbers of deaths was too small, even at the highest dose used, 1000 mg/kg.

[2] = system: passive cutaneous anaphylactic (PCA) reaction; assay: Passive cutaneous anaphylactic (PCA) reaction, reagin-allergen combination, in rats; assay type: in vivo; conditions: Rattus norvegicus; for ED100: intravenous, just before injection of allergen, read-out: ED100 (intravenous dose which produces 100% inhibition of the PCA reaction)
Text: In pharmacological tests the benzamide derivatives of general formula I suppress the passive cutaneous anaphylactic (PCA) reaction resulting from combination of tissue-fixed reaginic antibodies with the appropriate antigenic material (termed reagin-allergen combination) and carried out in an essentially similar manner to that described by Ogilvie [Nature (Lond.), (1964), 204, 91-92; Immunology, (1967), 12, 112-131]. In the method used to test these compounds sera were obtained from rats which had been infected with larvae of the nematode parasite Nippostrongylus brasiliensis; as a result of the parasitic infestation reaginic antibodies are elaborated in the host mammal and are found in sera removed from such animals. Other, non-infected, rats received intradermal injections of appropriate dilutions of such sera and were then given the allergenic material along with Evans' blue dye intravenously forty-eight hours later.
The allergenic material consisted of supernatant fluid after centrifugation of homogenates of adult Nippostrongylus brasiliensis worms which had been macerated in Tyrode's solution. The sites of PCA reactions were visualised by the effusion of Evan's blue dye from the circulation into those areas as a result of increased capillary permeability caused by the release of biologically-active substances from cells where reagin-allergen combination had occurred. The new compounds when given intravenously to the rats just before injection of allergen, or administered orally thirty minutes before intravenous injection of allergen, were able to prevent the development of the PCA reaction, as shown below in Table I, Table II and Table III.

[3] = Acute intravenous toxicity in mice; conditions: mouse, in vivo, triethanolamine salt (T)
Text: Mice were each treated intravenously with an aqueous solution of the triethanolamine salt or sodium salt of one of the compounds of formula I, and they were observed until there had been at least 3 consecutive days without any deaths. The LD50 figures obtained (doses lethal to 50% of mice tested) are shown below in Table V, expressed in mg/kg animal body weight. In Table V, "Na" means that the sodium salt was used and "T" means that the triethanolamine salt was used.
The aqueous solutions were prepared as follows:
A mixture of the test compound and water was treated gradually with triethanolamine until complete solution occurred. The solution was then diluted with water to a concentration of test compound of either 1% w/v or 2% w/v.
The test compound was dissolved in aqueous sodium hydroxide (1N) and the solution was brought to pH 8 by treatment with hydrochloric acid. The solution was then diluted with water to a concentration of test compound of 2% w/v.
Various volumes of these solutions were then administered to the mice.

SMILES | LD50 [1] | ED100 [2] | LD50 ([3]; 1% w/v test solution) | inhibition in vivo at 100 mg/kg ([2]; oral dose of 100 mg/kg, thirty minutes before intravenous allergen) | ED50 ([2]; oral, thirty minutes before intravenous allergen, read-out: ED50 (oral dose which produces 50% inhibition of the PCA reaction)) | LD50 ([3]; 2% w/v test solution)
O=C(Nc1nnn[nH]1)c1cc(-c2ccccc2)ccc1O [BG, 2-hydroxy-5-phenyl-N-(tetrazol-5-yl)benzamide] | > 1000 mg/kg | 10 mg/kg | 200 mg/kg |  |  | 
CCOc1cccc(C(=O)Nc2nnn[nH]2)c1O [AS, 3-ethoxy-2-hydroxy-N-(tetrazol-5-yl)benzamide] | > 1000 mg/kg | 1 mg/kg |  | 76% | 10 mg/kg | 560 mg/kg
